Results published in PMC9302676 (Chemsuschem, 2022).

Experiments:
[1] = molecular target: P450 BM3 (CYP102A1) (Priestia megaterium, UniProt P14779, N320L/T412V/T437A); test: biochemical
[2] = molecular target: P450 BM3 (CYP102A1) (Priestia megaterium, UniProt P14779); test: biochemical
Chain of P450 BM3 (CYP102A1) (Priestia megaterium, UniProt P14779) (P14779 whole entry): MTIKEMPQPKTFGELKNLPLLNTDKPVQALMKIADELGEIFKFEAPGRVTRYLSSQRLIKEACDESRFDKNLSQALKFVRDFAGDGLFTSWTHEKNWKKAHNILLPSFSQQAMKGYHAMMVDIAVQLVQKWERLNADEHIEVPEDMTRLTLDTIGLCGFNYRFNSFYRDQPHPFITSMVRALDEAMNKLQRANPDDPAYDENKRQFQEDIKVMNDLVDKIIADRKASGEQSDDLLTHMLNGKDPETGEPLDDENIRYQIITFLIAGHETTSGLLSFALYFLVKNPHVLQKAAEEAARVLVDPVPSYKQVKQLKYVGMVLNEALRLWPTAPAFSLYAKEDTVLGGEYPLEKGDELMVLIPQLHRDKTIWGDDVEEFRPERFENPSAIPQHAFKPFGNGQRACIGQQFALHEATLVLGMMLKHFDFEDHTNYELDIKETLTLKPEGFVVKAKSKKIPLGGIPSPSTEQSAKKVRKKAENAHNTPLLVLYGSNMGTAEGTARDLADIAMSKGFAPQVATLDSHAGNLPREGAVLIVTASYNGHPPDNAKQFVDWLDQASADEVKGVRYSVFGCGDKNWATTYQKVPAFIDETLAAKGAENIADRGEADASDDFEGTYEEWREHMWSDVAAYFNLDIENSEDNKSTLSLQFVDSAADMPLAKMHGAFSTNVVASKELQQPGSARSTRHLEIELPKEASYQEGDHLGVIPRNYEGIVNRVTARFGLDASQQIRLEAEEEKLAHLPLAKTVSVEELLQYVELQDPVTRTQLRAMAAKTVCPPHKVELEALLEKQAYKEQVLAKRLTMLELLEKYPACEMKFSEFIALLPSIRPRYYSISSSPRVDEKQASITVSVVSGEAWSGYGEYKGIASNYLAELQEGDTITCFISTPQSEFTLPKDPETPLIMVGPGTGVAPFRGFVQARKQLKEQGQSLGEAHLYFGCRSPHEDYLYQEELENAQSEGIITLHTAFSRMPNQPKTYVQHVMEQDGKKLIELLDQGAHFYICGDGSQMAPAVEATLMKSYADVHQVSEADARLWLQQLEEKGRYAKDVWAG

Chain of P450 BM3 (CYP102A1) (Priestia megaterium, UniProt P14779, N320L/T412V/T437A) (P14779 whole entry N320L/T412V/T437A): as the sequence (P14779 whole entry) above, with N320L, T412V, T437A counted along it

## CC1=CC(=O)CC(C)(C)C1 [α-isophorone]
[1]
  Kd: 6.263 ± 0.047 mM
[2]
  Kd: 6.85 ± 0.079 mM
